In general, IC50 refers to the midpoint of a concentration-inhibition curve.

The target of the assay is T1, endothelial lipase (EL) (Homo sapiens, UniProt Q9Y5X9).
T1 construct: HT-1080 cells, which were transformed by RAGE technology (Athersys) to overexpress endogenous EL; endogenous in cells; conditioned medium used as the enzyme source
T1 sequence (Q9Y5X9 21-500): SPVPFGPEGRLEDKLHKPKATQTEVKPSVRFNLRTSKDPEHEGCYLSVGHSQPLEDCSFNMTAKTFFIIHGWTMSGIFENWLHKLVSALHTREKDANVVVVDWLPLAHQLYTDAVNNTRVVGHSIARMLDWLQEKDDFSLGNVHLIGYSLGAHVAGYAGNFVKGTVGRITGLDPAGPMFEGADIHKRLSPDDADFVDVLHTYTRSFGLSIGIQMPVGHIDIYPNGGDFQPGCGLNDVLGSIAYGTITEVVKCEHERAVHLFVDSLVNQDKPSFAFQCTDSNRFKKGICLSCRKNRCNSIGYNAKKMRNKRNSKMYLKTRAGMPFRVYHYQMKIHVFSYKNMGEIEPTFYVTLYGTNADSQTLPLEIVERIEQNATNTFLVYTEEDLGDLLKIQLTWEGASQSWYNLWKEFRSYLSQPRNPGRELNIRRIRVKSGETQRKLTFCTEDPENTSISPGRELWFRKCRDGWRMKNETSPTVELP
Briefly: Endothelial lipase (EL) enzymatic assay with fluorescent substrate A10070 in DMPG vesicles. In kind it is biochemical. To be noted: conditioned media from HT-1080 cells overexpressing endogenous EL; 20 min preincubation at 37° C.; read-out: HLE_EL_CRC IC50. The procedure:
Endothelial lipase activity was measured using a fluorescent substrate, A10070, (Invitrogen, CA) doped into an artificial vesicle containing DMPG (Avanti Polar Lipids) as the excipient. Vesicles were prepared by combining 285 uL of 1 mM DMPG in a 1:1 mixture of MeOH and CHCl3 with 15 uL of 1 mM A10070 in a 1:1 mixture of MeOH and CHCl3. The mixture was dried under nitrogen and resuspended in 150 uL of 50 mM HEPES pH 8.0 buffer containing 100 mM NaCl and 0.2 mM EDTA. The sample was allowed to sit at rt for 15 min and then was sonicated 3×4 mins on ice with a Branson Sonicator using duty cycle 1. This preparation provides vesicles with a mole fraction of 0.05 for the FRET substrate.
The enzymatic assay was measured using white, opaque 96-well half area plates. Each well contained 60 uL of assay buffer (50 mM HEPES pH 8.0, 50 mM NaCl and 1 mM CaCl2) and 2 ul of a DMSO solution containing compound of interest. Conditioned media obtained from HT-1080 cells, which were transformed by RAGE technology (Athersys) to overexpress endogenous EL, was added and the reaction was allowed to incubate for 20 min at 37° C. with gentle agitation. The reaction was started by the addition of 20 uL of a 1:4 dilution of vesicles. The final total reaction volume was 100 uL. The reaction rates were measured on a Gemini plate reader with an excitation wavelength of 488 nm and a emission of 530 nm. Readings were taken every 20 seconds for 10 min with agitation between each reading. The slope of the linear portion of the readout was used to calculate the rate of the reaction.
For `O=C(NCCCc1ccc(Cl)c(Cl)c1)C1=C(O)C(=O)N(CC2CCCCC2)C1` [Example 48, 1-(cyclohexylmethyl)-N-(3-(3,4-dichlorophenyl)propyl)-4-hydroxy-5-oxo-2,5-dihydro-1H-pyrrole-3-carboxamide], the IC50 came to 5.73 nM.

On to `O=C(NCCCc1ccc(Cl)c(Cl)c1)C1=C(O)C(=O)N(CCOc2ccccc2)C1` [Example 61, N-(3-(3,4-dichlorophenyl)propyl)-4-hydroxy-5-oxo-1-(2-phenoxyethyl)-2,5-dihydro-1H-pyrrole-3-carboxamide], for which the 50% inhibitory concentration (IC50) was found to be 5.44 nM.

Take `CCOC(=O)[C@H](Cc1ccccc1)N1CC(C(=O)NCCCc2ccc(Cl)c(Cl)c2)=C(O)C1=O` [Example 138, (S)-ethyl 2-(4-(3-(3,4-dichlorophenyl)propylcarbamoyl)-3-hydroxy-2-oxo-2,5-dihydro-1H-pyrrol-1-yl)-3-phenylpropanoate]: the IC50 is 526 nM. With `CCN1CC(C(=O)NCCCc2ccc(Cl)c(Cl)c2)=C(NCCCc2ccc(Cl)c(Cl)c2)C1=O` [Example 179, N-(3-(3,4-dichlorophenyl)propyl)-4-(3-(3,4-dichlorophenyl)-propylamino)-1-ethyl-5-oxo-2,5-dihydro-1H-pyrrole-3-carboxamide], the concentration for half-maximal inhibition (IC50) was found to be 546 nM.

On to `CCN1CC(C(=O)NCCc2ccc(S(N)(=O)=O)cc2)=C(O)C1=O` [Example 181, 1-ethyl-4-hydroxy-5-oxo-N-(4-sulfamoylphenethyl)-2,5-dihydro-1H-pyrrole-3-carboxamide], for which the IC50 was found to be 581 nM. Under `CCN1CC(C(=O)NCCCN(C)c2ccccc2)=C(O)C1=O` [Example 182, 1-ethyl-4-hydroxy-N-(3-(methyl(phenyl)amino)propyl)-5-oxo-2,5-dihydro-1H-pyrrole-3-carboxamide] stands 3650 nM. As for `CC1C(C(=O)NCCCc2ccc(Cl)c(Cl)c2)=C(O)C(=O)N1CCOc1ccccc1` (centres unmarked) [Example 194, N-(3-(3,4-dichlorophenyl)propyl)-4-hydroxy-2-methyl-5-oxo-1-(2-phenoxyethyl)-2,5-dihydro-1H-pyrrole-3-carboxamide], the figure is 466 nM; as for `CN1CC(C(=O)NC(CCc2ccc(Cl)c(Cl)c2)C2CC2)=C(O)C1=O` (centres unmarked) [Example 232, N-(1-cyclopropyl-3-(3,4-dichlorophenyl)propyl)-4-hydroxy-1-methyl-5-oxo-2,5-dihydro-1H-pyrrole-3-carboxamide], 5460 nM; as for `CN1CC(C(=O)NC(CCc2ccc(Cl)c(Cl)c2)C2CC2)=C(O)C1=O` (centres unmarked) [Example 233, N-(1-cyclopropyl-3-(3,4-dichlorophenyl)propyl)-4-hydroxy-1-methyl-5-oxo-2,5-dihydro-1H-pyrrole-3-carboxamide], 6280 nM.

On to `C=CC(CCc1ccc(Cl)c(Cl)c1)NC(=O)C1=C(O)C(=O)N(C)C1` (centres unmarked) [Example 236, N-(5-(3,4-dichlorophenyl)pent-1-en-3-yl)-4-hydroxy-1-methyl-5-oxo-2,5-dihydro-1H-pyrrole-3-carboxamide], for which the IC50 came out at 493 nM.

Regarding `Cc1nc2cc(C#CCNC(=O)C3=C(O)C(=O)N(C)C3)ccc2s1` [Example 247, 4-hydroxy-1-methyl-N-(3-(2-methylbenzo[d]thiazol-5-yl)prop-2-ynyl)-5-oxo-2,5-dihydro-1H-pyrrole-3-carboxamide], the 50% inhibitory concentration (IC50) is 8380 nM. On to `Cc1ccc(C#CCNC(=O)C2=C(O)C(=O)N(C)C2)cc1C(F)(F)F` [Example 248, 4-hydroxy-1-methyl-N-(3-(4-methyl-3-(trifluoromethyl)phenyl)prop-2-ynyl)-5-oxo-2,5-dihydro-1H-pyrrole-3-carboxamide], for which the IC50 was 4660 nM. As for `CC(CCc1ccc(Cl)c(Cl)c1)NC(=O)C1=C(O)C(=O)N(Cc2c[nH]nn2)C1` (centres unmarked) [Example 272, 1-((1H-1,2,3-triazol-4-yl)methyl)-N-(4-(3,4-dichlorophenyl)butan-2-yl)-4-hydroxy-5-oxo-2,5-dihydro-1H-pyrrole-3-carboxamide], the figure is 3440 nM; as for `CC(CCc1ccc(Cl)c(Cl)c1)NC(=O)C1=C(O)C(=O)N(CCNC(=O)c2cc(F)cc(C(F)(F)F)c2)C1` (centres unmarked) [Example 273, N-(4-(3,4-dichlorophenyl)butan-2-yl)-1-(2-(3-fluoro-5-(trifluoromethyl)benzamido)ethyl)-4-hydroxy-5-oxo-2,5-dihydro-1H-pyrrole-3-carboxamide], 2680 nM; as for `CC(=O)N(C)CCN1CC(C(=O)NC(C)CCc2ccc(Cl)c(Cl)c2)=C(O)C1=O` (centres unmarked) [Example 280, N-(4-(3,4-dichlorophenyl)butan-2-yl)-4-hydroxy-1-(2-(N-methylacetamido)ethyl)-5-oxo-2,5-dihydro-1H-pyrrole-3-carboxamide], 7300 nM. As for `CCN1CC(C(=O)NC[C@H]2CCc3ccccc3O2)=C(O)C1=O` [Example 297, (R)-N-(chroman-2-ylmethyl)-1-ethyl-4-hydroxy-5-oxo-2,5-dihydro-1H-pyrrole-3-carboxamide], the figure is 6520 nM; as for `O=C(NCCCOc1ccccc1)C1=C(O)C(=O)N(CC(F)(F)F)C1` [Example 299, 4-hydroxy-5-oxo-N-(3-phenoxypropyl)-1-(2,2,2-trifluoroethyl)-2,5-dihydro-1H-pyrrole-3-carboxamide], 2740 nM. As for `C[C@@H](NC(=O)C1=C(O)C(=O)N(CC(F)(F)F)C1)c1ccc2ccccc2c1` [Example 300, (R)-4-hydroxy-N-(1-(naphthalen-2-yl)ethyl)-5-oxo-1-(2,2,2-trifluoroethyl)-2,5-dihydro-1H-pyrrole-3-carboxamide], the figure is 3810 nM. `CC(CCc1ccc(Cl)c(Cl)c1)NC(=O)C1=C(O)C(=O)N(CCC(=O)O)C1` (centres unmarked) [Example 344, 3-(4-(4-(3,4-dichlorophenyl)butan-2-ylcarbamoyl)-3-hydroxy-2-oxo-2,5-dihydro-1H-pyrrol-1-yl) propanoic acid]: the IC50 turned out to be 575 nM. Turning to `CC(CCc1ccc(Cl)c(Cl)c1)NC(=O)C1=C(O)C(=O)N([C@H]2CCc3ccc(C(F)(F)F)cc32)C1` (stereo partly drawn) [Example 347, N-(4-(3,4-dichlorophenyl)butan-2-yl)-4-hydroxy-5-oxo-1-((S)-6-(trifluoromethyl)-2,3-dihydro-1H-inden-1-yl)-2,5-dihydro-1H-pyrrole-3-carboxamide], the IC50 stood at 500 nM.

Values taken from patent US8952180B2, “Pyrrolinone carboxamide compounds useful as endothelial lipase inhibitors” (Bristol-Myers Squibb Company, priority 2011, dated 2015).
